Test results from patent US8192962B2, “Processes for detecting toxic substances” (Daikin Industries, Ltd., priority 2001, dated 2012).

Test system: Metabolism protein genes
Assay: DNA chip mRNA expression in yeast, metabolism protein genes (Table 7)
Type: cell-based, Saccharomyces cerevisiae S288C
How it was run: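 Whole-genome yeast DNA chip hybridization (65° C., >12 h) of Cy-labeled cDNA from S288C cells exposed 2 h at 25° C. to a sub-lethal toxicant dose in YPD; value is intensity relative to chemical-free control.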

## CN(C)C(=S)SSC(=S)N(C)C [(10), Tetramethylthiuram disulfide]
Yeast gene YAL012W
  The level of expressed mRNA in the presence of chemical substance/The level of expressed mRNA in the absence of chemical substance: 3.9
Yeast gene YAL038W
  The level of expressed mRNA in the presence of chemical substance/The level of expressed mRNA in the absence of chemical substance: 1.1
Yeast gene YAL044C
  The level of expressed mRNA in the presence of chemical substance/The level of expressed mRNA in the absence of chemical substance: 0.6
Yeast gene YAL054C
  The level of expressed mRNA in the presence of chemical substance/The level of expressed mRNA in the absence of chemical substance: 4.1
Yeast gene YAR071W
  The level of expressed mRNA in the presence of chemical substance/The level of expressed mRNA in the absence of chemical substance: 0.3
Yeast gene YBL001C
  The level of expressed mRNA in the presence of chemical substance/The level of expressed mRNA in the absence of chemical substance: 0.9
Yeast gene YBR003W
  level of expressed mRNA in the presence/in the absence of chemical substance: 1.3
Yeast gene YBR011C
  level of expressed mRNA in the presence/in the absence of chemical substance: 1.0
Yeast gene YBR014C
  The level of expressed mRNA in the presence of chemical substance/The level of expressed mRNA in the absence of chemical substance: 0.8
Yeast gene YBR020W
  level of expressed mRNA in the presence/in the absence of chemical substance: 1.1
Yeast gene YBR023C
  The level of expressed mRNA in the presence of chemical substance/The level of expressed mRNA in the absence of chemical substance: 0.4
Yeast gene YBR029C
  The level of expressed mRNA in the presence of chemical substance/The level of expressed mRNA in the absence of chemical substance: 1.1
Yeast gene YBR035C
  The level of expressed mRNA in the presence of chemical substance/The level of expressed mRNA in the absence of chemical substance: 1.5
Yeast gene YBR068C
  The level of expressed mRNA in the presence of chemical substance/The level of expressed mRNA in the absence of chemical substance: 2.5
Yeast gene YBR111C
  The level of expressed mRNA in the presence of chemical substance/The level of expressed mRNA in the absence of chemical substance: 1.9
Yeast gene YBR183W
  The level of expressed mRNA in the presence of chemical substance/The level of expressed mRNA in the absence of chemical substance: 2.0
Yeast gene YBR222C
  The level of expressed mRNA in the presence of chemical substance/The level of expressed mRNA in the absence of chemical substance: 1.0
Yeast gene YBR256C
  The level of expressed mRNA in the presence of chemical substance/The level of expressed mRNA in the absence of chemical substance: 6.8
Yeast gene YBR296C
  The level of expressed mRNA in the presence of chemical substance/The level of expressed mRNA in the absence of chemical substance: 1.8
Yeast gene YCL009C
  The level of expressed mRNA in the presence of chemical substance/The level of expressed mRNA in the absence of chemical substance: 1.6
Yeast gene YCL064C
  The level of expressed mRNA in the presence of chemical substance/The level of expressed mRNA in the absence of chemical substance: 5.2
Yeast gene YCR010C
  level of expressed mRNA in the presence/in the absence of chemical substance: 4.7
Yeast gene YCR034W
  level of expressed mRNA in the presence/in the absence of chemical substance: 0.2
Yeast gene YCR048W
  The level of expressed mRNA in the presence of chemical substance/The level of expressed mRNA in the absence of chemical substance: 0.5
Yeast gene YCR098C
  The level of expressed mRNA in the presence of chemical substance/The level of expressed mRNA in the absence of chemical substance: 2.4
Yeast gene YDR019C
  The level of expressed mRNA in the presence of chemical substance/The level of expressed mRNA in the absence of chemical substance: 0.7
Yeast gene YDR050C
  level of expressed mRNA in the presence/in the absence of chemical substance: 1.3
Yeast gene YDR073W
  level of expressed mRNA in the presence/in the absence of chemical substance: 1.2
Yeast gene YDR123C
  level of expressed mRNA in the presence/in the absence of chemical substance: 0.6
Yeast gene YDR178W
  level of expressed mRNA in the presence/in the absence of chemical substance: 0.8
Yeast gene YDR277C
  level of expressed mRNA in the presence/in the absence of chemical substance: 0.9
Yeast gene YDR284C
  level of expressed mRNA in the presence/in the absence of chemical substance: 1.0
Yeast gene YDR345C
  level of expressed mRNA in the presence/in the absence of chemical substance: 1.1
Yeast gene YDR380W
  The level of expressed mRNA in the presence of chemical substance/The level of expressed mRNA in the absence of chemical substance: 0.3
Yeast gene YDR400W
  level of expressed mRNA in the presence/in the absence of chemical substance: 1.4
Yeast gene YDR408C
  level of expressed mRNA in the presence/in the absence of chemical substance: 0.5
Yeast gene YDR483W
  level of expressed mRNA in the presence/in the absence of chemical substance: 1.1
Yeast gene YDR497C
  The level of expressed mRNA in the presence of chemical substance/The level of expressed mRNA in the absence of chemical substance: 0.8
Yeast gene YDR502C
  The level of expressed mRNA in the presence of chemical substance/The level of expressed mRNA in the absence of chemical substance: 0.9
Yeast gene YDR516C
  The level of expressed mRNA in the presence of chemical substance/The level of expressed mRNA in the absence of chemical substance: 5.2
Yeast gene YEL063C
  level of expressed mRNA in the presence/in the absence of chemical substance: 1.7
Yeast gene YER015W
  level of expressed mRNA in the presence/in the absence of chemical substance: 0.9
Yeast gene YER026C
  The level of expressed mRNA in the presence of chemical substance/The level of expressed mRNA in the absence of chemical substance: 1.5
Yeast gene YER053C
  The level of expressed mRNA in the presence of chemical substance/The level of expressed mRNA in the absence of chemical substance: 3.9
Yeast gene YER069W
  The level of expressed mRNA in the presence of chemical substance/The level of expressed mRNA in the absence of chemical substance: 10.4
Yeast gene YER081W
  level of expressed mRNA in the presence/in the absence of chemical substance: 1.1
Yeast gene YER096W
  The level of expressed mRNA in the presence of chemical substance/The level of expressed mRNA in the absence of chemical substance: 3.5
Yeast gene YER120W
  level of expressed mRNA in the presence/in the absence of chemical substance: 0.9
Yeast gene YER178W
  The level of expressed mRNA in the presence of chemical substance/The level of expressed mRNA in the absence of chemical substance: 1.3
Yeast gene YFL011W
  level of expressed mRNA in the presence/in the absence of chemical substance: 1.6
Yeast gene YFL014W
  The level of expressed mRNA in the presence of chemical substance/The level of expressed mRNA in the absence of chemical substance: 5.8
Yeast gene YFL030W
  The level of expressed mRNA in the presence of chemical substance/The level of expressed mRNA in the absence of chemical substance: 4.9
Yeast gene YFL031W
  The level of expressed mRNA in the presence of chemical substance/The level of expressed mRNA in the absence of chemical substance: 0.7
Yeast gene YFL056C
  The level of expressed mRNA in the presence of chemical substance/The level of expressed mRNA in the absence of chemical substance: 31.3
Yeast gene YFL057C
  The level of expressed mRNA in the presence of chemical substance/The level of expressed mRNA in the absence of chemical substance: 46.1
Yeast gene YFR047C
  The level of expressed mRNA in the presence of chemical substance/The level of expressed mRNA in the absence of chemical substance: 1.5
Yeast gene YGL012W
  level of expressed mRNA in the presence/in the absence of chemical substance: 0.9
Yeast gene YGL022W
  The level of expressed mRNA in the presence of chemical substance/The level of expressed mRNA in the absence of chemical substance: 0.4
Yeast gene YGL115W
  level of expressed mRNA in the presence/in the absence of chemical substance: 1.2
Yeast gene YGL126W
  The level of expressed mRNA in the presence of chemical substance/The level of expressed mRNA in the absence of chemical substance: 0.7
Yeast gene YGL202W
  The level of expressed mRNA in the presence of chemical substance/The level of expressed mRNA in the absence of chemical substance: 1.7
Yeast gene YGL205W
  level of expressed mRNA in the presence/in the absence of chemical substance: 0.6
Yeast gene YGL209W
  The level of expressed mRNA in the presence of chemical substance/The level of expressed mRNA in the absence of chemical substance: 0.4
Yeast gene YGL248W
  The level of expressed mRNA in the presence of chemical substance/The level of expressed mRNA in the absence of chemical substance: 2.9
Yeast gene YGL252C
  The level of expressed mRNA in the presence of chemical substance/The level of expressed mRNA in the absence of chemical substance: 1.7
Yeast gene YGR037C
  The level of expressed mRNA in the presence of chemical substance/The level of expressed mRNA in the absence of chemical substance: 1.4
Yeast gene YGR055W
  The level of expressed mRNA in the presence of chemical substance/The level of expressed mRNA in the absence of chemical substance: 2.4
Yeast gene YGR096W
  level of expressed mRNA in the presence/in the absence of chemical substance: 0.8
Yeast gene YGR191W
  level of expressed mRNA in the presence/in the absence of chemical substance: 0.7
Yeast gene YGR194C
  The level of expressed mRNA in the presence of chemical substance/The level of expressed mRNA in the absence of chemical substance: 2.1
Yeast gene YGR204W
  level of expressed mRNA in the presence/in the absence of chemical substance: 2.3
Yeast gene YGR256W
  The level of expressed mRNA in the presence of chemical substance/The level of expressed mRNA in the absence of chemical substance: 2.5
Yeast gene YGR282C
  The level of expressed mRNA in the presence of chemical substance/The level of expressed mRNA in the absence of chemical substance: 0.8
Yeast gene YGR288W
  level of expressed mRNA in the presence/in the absence of chemical substance: 2.6
Yeast gene YHR025W
  level of expressed mRNA in the presence/in the absence of chemical substance: 0.4
Yeast gene YHR111W
  The level of expressed mRNA in the presence of chemical substance/The level of expressed mRNA in the absence of chemical substance: 4.2
Yeast gene YHR123W
  level of expressed mRNA in the presence/in the absence of chemical substance: 1.1
Yeast gene YHR137W
  The level of expressed mRNA in the presence of chemical substance/The level of expressed mRNA in the absence of chemical substance: 0.9
Yeast gene YHR174W
  The level of expressed mRNA in the presence of chemical substance/The level of expressed mRNA in the absence of chemical substance: 1.5
Yeast gene YHR176W
  The level of expressed mRNA in the presence of chemical substance/The level of expressed mRNA in the absence of chemical substance: 6.4
Yeast gene YHR210C
  level of expressed mRNA in the presence/in the absence of chemical substance: 0.9
Yeast gene YIL006W
  level of expressed mRNA in the presence/in the absence of chemical substance: 1.1
Yeast gene YIL045W
  The level of expressed mRNA in the presence of chemical substance/The level of expressed mRNA in the absence of chemical substance: 3.2
Yeast gene YIL107C
  The level of expressed mRNA in the presence of chemical substance/The level of expressed mRNA in the absence of chemical substance: 3.5
Yeast gene YIL154C
  The level of expressed mRNA in the presence of chemical substance/The level of expressed mRNA in the absence of chemical substance: 1.0
Yeast gene YIL155C
  The level of expressed mRNA in the presence of chemical substance/The level of expressed mRNA in the absence of chemical substance: 2.9
Yeast gene YIL167W
  The level of expressed mRNA in the presence of chemical substance/The level of expressed mRNA in the absence of chemical substance: 12.7
Yeast gene YIL172C
  The level of expressed mRNA in the presence of chemical substance/The level of expressed mRNA in the absence of chemical substance: 7.1
Yeast gene YIR034C
  The level of expressed mRNA in the presence of chemical substance/The level of expressed mRNA in the absence of chemical substance: 3.5
Yeast gene YIR036C
  The level of expressed mRNA in the presence of chemical substance/The level of expressed mRNA in the absence of chemical substance: 1.9
Yeast gene YJL031C
  The level of expressed mRNA in the presence of chemical substance/The level of expressed mRNA in the absence of chemical substance: 3.6
Yeast gene YJL068C
  The level of expressed mRNA in the presence of chemical substance/The level of expressed mRNA in the absence of chemical substance: 3.1
Yeast gene YJL088W
  The level of expressed mRNA in the presence of chemical substance/The level of expressed mRNA in the absence of chemical substance: 4.1
Yeast gene YJL099W
  The level of expressed mRNA in the presence of chemical substance/The level of expressed mRNA in the absence of chemical substance: 3.1
Yeast gene YJL121C
  level of expressed mRNA in the presence/in the absence of chemical substance: 0.4
Yeast gene YJL167W
  level of expressed mRNA in the presence/in the absence of chemical substance: 0.9
Yeast gene YJL172W
  The level of expressed mRNA in the presence of chemical substance/The level of expressed mRNA in the absence of chemical substance: 1.9
Yeast gene YJL219W
  The level of expressed mRNA in the presence of chemical substance/The level of expressed mRNA in the absence of chemical substance: 2.3
Yeast gene YJR077C
  level of expressed mRNA in the presence/in the absence of chemical substance: 0.7
Yeast gene YJR137C
  The level of expressed mRNA in the presence of chemical substance/The level of expressed mRNA in the absence of chemical substance: 4.8
